Data from patent publication US8772500B2, “TRPV3 modulators” (AbbVie Inc., priority 2011, dated 2014).

Assays:
[1] = In vitro rat microsomal stability assay; assay type: in vitro ADME, rat (Sprague-Dawley)
Summary of the method: (§1)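 Incubations ran at 37 °C in NADPH-supplemented rat (Sprague-Dawley) or human hepatic microsomes.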

human TRPV3 = molecular target: T1, human TRPV3 (Homo sapiens, UniProt Q8NET8); test: In vitro antagonism of recombinant human TRPV3 activation (FLIPR Tetra calcium assay, 2-APB as agonist); assay type: cell-based; conditions: HEK293 cells stably expressing human TRPV3; 2-APB 80 μM; range class; read-out: IC50 (reported range)
T1 construct: expressed in transfected cells
T1 sequence (Q8NET8 1-790): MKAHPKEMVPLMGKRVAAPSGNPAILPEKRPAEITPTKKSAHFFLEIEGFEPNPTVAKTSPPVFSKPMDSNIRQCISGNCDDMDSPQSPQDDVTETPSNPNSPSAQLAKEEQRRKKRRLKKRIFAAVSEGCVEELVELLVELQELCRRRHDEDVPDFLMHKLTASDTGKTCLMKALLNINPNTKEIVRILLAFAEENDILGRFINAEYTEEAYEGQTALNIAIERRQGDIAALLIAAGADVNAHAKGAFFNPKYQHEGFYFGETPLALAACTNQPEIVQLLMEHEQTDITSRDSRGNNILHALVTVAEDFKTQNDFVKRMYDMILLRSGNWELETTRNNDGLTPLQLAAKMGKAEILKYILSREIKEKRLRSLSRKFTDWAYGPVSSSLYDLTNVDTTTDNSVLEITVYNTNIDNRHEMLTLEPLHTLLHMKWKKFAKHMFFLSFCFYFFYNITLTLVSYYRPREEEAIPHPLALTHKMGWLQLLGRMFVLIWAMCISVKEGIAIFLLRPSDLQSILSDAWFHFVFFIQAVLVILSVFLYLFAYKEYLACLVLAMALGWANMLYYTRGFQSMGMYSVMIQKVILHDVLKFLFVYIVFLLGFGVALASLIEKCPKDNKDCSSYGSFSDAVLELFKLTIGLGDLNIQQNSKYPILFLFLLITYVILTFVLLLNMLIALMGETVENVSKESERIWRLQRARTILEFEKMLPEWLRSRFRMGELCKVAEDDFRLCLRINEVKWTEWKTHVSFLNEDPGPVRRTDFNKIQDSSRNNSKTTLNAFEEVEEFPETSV
Summary of the method: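 Readout is FLIPR fluorescence, max minus min as percent of uninhibited 2-APB response, giving IC50 (usually mean of ≥2 runs). Stable human TRPV3 HEK293 cells, Calcium-4 dye-loaded, got test compound then, three minutes later, 80 μM 2-APB (EC80); run length 10 min.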

[2] = In vitro human microsomal stability assay; assay type: in vitro ADME
Summary of the method: as §1

[3] = Sprague-Dawley, rat, 0.5 h, 0.5 μM, pH 7.4
[4] = 0.5 μM substrate, 0.25 mg/mL microsomal protein, pH 7.4, 37° C., NADPH, 30 minutes

Compound	RAT MICROSOMAL STABILITY (% REMAINING AFTER 30 MINUTES) [1, 3] [%]	IC50 (human TRPV3) [µM]	HUMAN MICROSOMAL STABILITY (% REMAINING AFTER 30 MINUTES) ([2]; human, 0.5 h, 0.5 μM, pH 7.4) [%]	RAT MICROSOMAL STABILITY (% REMAINING AFTER 30 MINUTES) [1, 4] [%]	HUMAN MICROSOMAL STABILITY (% REMAINING AFTER 30 MINUTES) [2, 4] [%]
OC(c1ccccn1)C1(c2ccc(OC(F)(F)F)cc2)CCCO1 (stereo not drawn) [Example 95, (syn)-pyridin-2-yl{2-[4-(trifluoromethoxy)phenyl]tetrahydrofuran-2-yl}-methanol]	0.61	1.1 to 5	57		
OC(c1ccccn1)C1(c2ccccc2OC(F)(F)F)CCCO1 (stereo not drawn) [Example 96, (anti)-pyridin-2-yl{2-[2-(trifluoromethoxy)phenyl]tetrahydrofuran-2-yl}-methanol]	0.15	1.1 to 5	0.68		
OC(c1ccccn1)C1(c2ccccc2OC(F)(F)F)CCCO1 (stereo not drawn) [Example 97, (syn)-pyridin-2-yl{2-[2-(trifluoromethoxy)phenyl]tetrahydrofuran-2-yl}-methanol]	0.16	0.05 to 0.5	6.4		
OC(c1ccccn1)C1(c2ccc(Cl)c(Cl)c2)CCCO1 (stereo not drawn) [Example 98]	0.020	0.05 to 0.5	7.6		
OC(c1ccccn1)C1(c2ccc(Cl)c(Cl)c2)CCCO1 (stereo not drawn) [Example 99, (syn)-[2-(3,4-dichlorophenyl)tetrahydrofuran-2-yl](pyridin-2-yl)methanol]	0.17	1.1 to 5	30		
OC(c1ccccn1)C1(c2cccc(F)c2)CCCO1 (stereo not drawn) [Example 100, (anti)-[2-(3-fluorophenyl)tetrahydrofuran-2-yl](pyridin-2-yl)methanol]	2.9	0.501 to 1	26		
OC(c1ccccn1)C1(c2ccccc2F)CCCO1 (stereo not drawn) [Example 103, (syn)-[2-(2-fluorophenyl)tetrahydrofuran-2-yl](pyridin-2-yl)methanol]	0.012	1.1 to 5	73		
OC(c1ccccn1)C1(c2cccc(Cl)c2)CCCO1 (stereo not drawn) [Example 104, (anti)-[2-(3-chlorophenyl)tetrahydrofuran-2-yl](pyridin-2-yl)methanol]	0.42	0.05 to 0.5	15		
OC(c1ccccn1)C1(c2cccc(Cl)c2)CCCO1 (stereo not drawn) [Example 105, (syn)-[2-(3-chlorophenyl)tetrahydrofuran-2-yl](pyridin-2-yl)methanol]	0.040	5.1 to 20	42		
OC(c1ccccn1)C1(c2cccc(C(F)(F)F)c2)CCCO1 (stereo not drawn) [Example 106, (anti)-pyridin-2-yl{2-[3-(trifluoromethyl)phenyl]tetrahydrofuran-2-yl}-methanol]	1.6	0.05 to 0.5	3.9		
OC(c1ccccn1)C1(c2cccc(C(F)(F)F)c2)CCCO1 (stereo not drawn) [Example 107, (syn)-pyridin-2-yl{2-[3-(trifluoromethyl)phenyl]tetrahydrofuran-2-yl}-methanol]	0.23	1.1 to 5	31		
OC(c1ccccn1)C1(c2ccc(F)c(F)c2)CCCO1 (stereo not drawn) [Example 108, (anti)-[2-(3,4-difluorophenyl)tetrahydrofuran-2-yl](pyridin-2-yl)methanol]	4.9	0.501 to 1	13		
OC(c1ccccn1)C1(c2ccc(F)c(F)c2)CCCO1 (stereo not drawn) [Example 109, (syn)-[2-(3,4-difluorophenyl)tetrahydrofuran-2-yl](pyridin-2-yl)methanol]	0.74	5.1 to 20	45		
Cl.O[C@H](c1ccccn1)C1(c2ccc(Cl)c(Cl)c2)CC(F)(F)C1 [Example 111, (S)-[1-(3,4-dichlorophenyl)-3,3-difluorocyclobutyl](pyridin-2-yl)methanol hydrochloride]		0.05 to 0.5		23	52
OC(c1ccccn1)C1(c2ccc(OC(F)(F)F)cc2)CC(F)(F)C1 (stereo not drawn) [Example 112, {3,3-difluoro-1-[4-(trifluoromethoxy)phenyl]cyclobutyl}(pyridin-2-yl)-methanol]	75	0.05 to 0.5	75		
OC(c1ccccn1)C1(c2cccc(C(F)(F)F)c2)CC(F)(F)C1 (stereo not drawn) [Example 113, {3,3-difluoro-1-[3-(trifluoromethyl)phenyl]cyclobutyl}(pyridin-2-yl)-methanol]	18	0.05 to 0.5	24		
OC(c1ccccn1)C1(c2cccc(OC(F)(F)F)c2)CC(F)(F)C1 (stereo not drawn) [Example 114, {3,3-difluoro-1-[3-(trifluoromethoxy)phenyl]cyclobutyl}(pyridin-2-yl)-methanol]	11	0.05 to 0.5	6.9		
OC(c1ccccn1)C1(c2ccc(C(F)(F)F)cn2)CCC1 (stereo not drawn) [Example 115, pyridin-2-yl{1-[5-(trifluoromethyl)pyridin-2-yl]cyclobutyl}methanol]	81	5.1 to 20	>85		
OC(c1ccccn1)C1(c2cc(C(F)(F)F)ccn2)CCC1 (stereo not drawn) [Example 116, pyridin-2-yl{1-[4-(trifluoromethyl)pyridin-2-yl]cyclobutyl}methanol]	25	0.501 to 1	37		
O=C1CC(c2ccc(Cl)c(Cl)c2)([C@H](O)c2ccccn2)C1 [Example 117, 3-(3,4-dichlorophenyl)-3-[(S)-hydroxy(pyridin-2-yl)methyl]cyclobutanone]	50	1.1 to 5	18		
O[C@H](c1ccccn1)C1(c2cc(C(F)(F)F)ccn2)CCC1 [Example 123, (S)-pyridin-2-yl{1-[4-(trifluoromethyl)pyridin-2-yl]cyclobutyl}methanol]	11	0.05 to 0.5	21		
O[C@@H](c1ccccn1)C1(c2cc(C(F)(F)F)ccn2)CC(F)(F)C1 [Example 125, (R)-{3,3-difluoro-1-[4-(trifluoromethyl)pyridin-2-yl]cyclobutyl}(pyridin-2-yl)methanol]	8.8	5.1 to 20	53		
O[C@H](c1ccccn1)C1(c2cc(C(F)(F)F)ccn2)CC(F)(F)C1 [Example 126, (S)-{3,3-difluoro-1-[4-(trifluoromethyl)pyridin-2-yl]cyclobutyl}(pyridin-2-yl)methanol]	7.7	0.501 to 1	21		
Nc1cccnc1C(O)C1(c2ccc(C(F)(F)F)cc2)CCC1 (stereo not drawn) [Example 127, (3-aminopyridin-2-yl){1-[4-(trifluoromethyl)phenyl]cyclobutyl}methanol]	1.1	5.1 to 20	51		
O[C@H](c1ccccn1)C1(c2ccc(OC(F)(F)F)cc2)CC(F)(F)C1 [Example 128, (S)-{3,3-difluoro-1-[4-(trifluoromethoxy)phenyl]cyclobutyl}(pyridin-2-yl)-methanol]	67	0.05 to 0.5	59		
COC1(OC)CC(c2ccc(OC(F)(F)F)cc2)(C(O)c2ccccn2)C1 (stereo not drawn) [Example 129, {3,3-dimethoxy-1-[4-(trifluoromethoxy)phenyl]cyclobutyl}(pyridin-2-yl)-methanol]	0.01	0.05 to 0.5	46		
